Source: patent publication US20230321124A1, “ROR gamma t Inhibitors and Topical Uses Thereof” (DERMIRA, INC., priority 2020, published 2023)

Test system: IL-17A protein
Assay: skin Resident Immune Cell Assay (sRICA), Th17 model, human skin biopsies
Type: cell-based
Conditions: Example 2, FIG. 1; 10 ul topical, overnight; media harvested 48 hours after activation; N=6
Description: A skin Resident Immune Cell Assay (sRICA) was used to test Compounds 1, 2 and 3 in Formulations as identified in Example 1 for reduction of IL-17A protein upregulation in the Th17 sRICA model. In this model, human surgical skin waste was cultured in a transwell system, with the dermis in contact with cell culture media and the stratum corneum exposed to air. To perform the assay, each human skin sample was defatted and dermatomed to 750 μm. Next, 8 mm punch biopsies were obtained and placed in a membrane transwell. The biopsies were prepared with a barrier ring to contain the formulation and prevent leakage of the formulation. […]
10 ul of the test solvent system was applied to topically prepared sRICA samples and allowed to penetrate the skin overnight. […] An unpaired, two-tailed students T-test was used to determined statistical significance between Th17 treated skin and treatment groups. The performance of the 3 RORγt inhibitors in Formulations representative of creams (Formulations 3-7), aqueous gels (Formulation 8), non-aqueous gels (Formulations 9-10), and ointments (Formulation 11) were evaluated.
All formulations of containing Compound 1 or Compound 2 were created at 80% saturation, except for all non-aqueous gels (NAG) in which saturation has not yet been determined (>12%) and were arbitrarily formulated at 1% or 5% (see Formulation 10 (1%) and Formulation 10 (5%) in Tables 6 and 7). […]

Compound: C[C@H]1C[C@H]2[C@@H]3CCC4=CC(=O)C=C[C@]4(C)[C@@]3(F)[C@@H](O)C[C@]2(C)[C@@]1(O)C(=O)CCl [Clobetasol]
- Th17-cocktail induced IL17A protein in culture media: complete suppression
